In US7902356B2, “Thiazolopyridinone derivates as MCH receptor antagonists” (Eli Lilly and Company, priority 2004, dated 2011):
Where a name gives a salt, the structure may show the parent alone.

Tests used:
human MCHR1 = biological target: T1, human MCHR1 (Homo sapiens, UniProt Q99705); experiment: 125I-MCH competitive binding assay with clone 43 membranes (SPA); conditions: 125I-MCH binding, Ki from IC50 by Cheng-Prusoff
T1 construct: The full-length cDNA for human MCHR1 was cloned; expressed in transfected cells; host or cells: AV12 cells previously transfected with Galpha15
Description: The full-length cDNA for human MCHR1 was cloned from a human adult brain cDNA library (Edge Biosystems, Cat. 38356) by standard polymerase chain reaction (PCR) methodology employing the following primers: sense, 5′-GCCACCATGGACCT GGAAGCCTCGCTGC-3′; anti-sense, 5′-[…]-3′. The PCR reaction was performed in a final volume of 50 μl containing 5 μl of a 10× stock solution of PCR buffer, 1 μl of 10 mM dNTP mixture (200 μM final), 2 μl of 50 mM Mg(SO4) (2 mM final), 0.5 μl of 20 μM solutions of each primer (0.2 μM final), 5 μl of template cDNA containing 0.5 ng DNA, 0.5 μl of Platinum Taq High Fidelity DNA polymerase (Gibco Life Technologies) and […] of H2O. PCR amplification was performed on a Perkin Elmer 9600 thermocycler. After denaturation for 90 sec at 94° C., the amplification sequence consisting of 94° C. for 25 sec, 55° C. for 25 sec and 72° C. for 2 min was repeated 30 times, followed by a final elongation step at 72° C. for 10 min. The desired PCR product (1.1 Kb) was confirmed by agarose gel electrophoresis and the band was extracted from the gel by Geneclean (Bio101) following the manufacturer's instructions. Following extraction, the cDNA fragment was cloned into pCR2.1-TOPO plasmid (Invitrogen Corp) to confirm the identity and sequence.
In order to generate cell lines stably expressing MCHR1, the insert was then subcloned into the Xba I and Not I sites of pcDNA(+)-3.1-neomycin (Invitrogen). After purification by Qiagen Maxi-prep kit (QIAGEN, Inc.), the plasmid was transfected by Fugene 6 (Roche Applied Science) into AV12 cells that had been previously transfected with the promiscuous G protein Gα15. The transfected cells were selected by G418 (800 μg/ml) for 10-14 days and single colonies were isolated from culture plates. The G418-resistant colonies were further selected for MCHR1 expression by measuring MCH-stimulated Ca^2+ transients with a fluorometric imaging plate reader (FLIPR, Molecular Devices).
Both the ^125I-MCH binding and functional GTPγ^35S binding assays employed membranes isolated from a clone designated as clone 43. Typically, cells from 20 confluent T225 flasks were processed by washing the monolayers in cold phosphate-buffered saline (PBS), scraping the cells into same and re-suspending the cell pellet in 35 ml of 250 mM Sucrose, 50 mM HEPES, pH 7.5, 1 mM MgCl2, 24 μg/ml DNase I, and protease inhibitors (1 Complete® tablet, per 50 ml of buffer prepared, Roche Diagnostics). Alternatively, greater levels of cells could be generated by adapting cell growth to suspension culture in 20 L stirred vessel bioreactors. After incubation on ice for 5 min, cells were disrupted with 20-25 strokes of a Teflon/Glass homogenizer attached to an overhead motorized stirrer, and the homogenate was centrifuged at 40,000 rpm in Beckman Type 70.1 Ti rotor. The pellets were re-suspended in 250 mM Sucrose, 50 mM HEPES, pH 7.5, 1.5 mM CaCl2, 1 mM MgSO4 and protease inhibitors by Teflon/Glass homogenization to achieve a protein concentration of ˜3-5 mg/ml (Pierce BCA assay with Bovine serum albumin as standard). Aliquots were stored at −70° C.
Binding of compounds to MCHR1 was assessed in a competitive binding assay employing ^125I-MCH, compound and clone 43 membranes. Briefly, assays are carried out in 96-well Costar 3632 white opaque plates in a total volume of 200 μl containing 25 mM HEPES, pH 7.0, 10 mM CaCl2, 2 mg/ml bovine serum albumin, 0.5% dimethyl sulfoxide (DMSO), 5 μg of clone 43 membranes, 200 pM ^125I-MCH (NEN), 0.625 mg/ml of wheat germ agglutinin scintillation proximity assay beads (WGA-SPA beads, Amersham Inc., now GE Healthcare) and a graded dose of test compound. Non-specific binding is assessed in the presence of 0.1 μM unlabeled MCH. Bound ^125I-MCH is determined by placing sealed plates in a Microbeta Trilux (Perkin Elmer Life and Analytical Sciences Inc.) and counting after a 12 hr delay. […]

[1] = In vivo efficacy: 3 day body weight change in diet-induced obese rats; conditions: 10 mg/kg oral gavage once a day for 3 days; 3 day cumulative; diet-induced obese male Long-Evans rats
Description: Vehicle consisted of 1% CMC and 0.25% PS-80 in water.
Animals were individually housed in a temperature regulated room (24° C.) with a reverse 12 hour light/dark cycle (dark 10:00/22:00). Water and food (Teklad 95217, Harlan, Wis.) were available ad libitum. Compounds were dosed orally once a day before onset of dark for 3 days. Daily food intake and body weight change were measured for the 3 day period.

T1 sequence (Q99705 whole entry): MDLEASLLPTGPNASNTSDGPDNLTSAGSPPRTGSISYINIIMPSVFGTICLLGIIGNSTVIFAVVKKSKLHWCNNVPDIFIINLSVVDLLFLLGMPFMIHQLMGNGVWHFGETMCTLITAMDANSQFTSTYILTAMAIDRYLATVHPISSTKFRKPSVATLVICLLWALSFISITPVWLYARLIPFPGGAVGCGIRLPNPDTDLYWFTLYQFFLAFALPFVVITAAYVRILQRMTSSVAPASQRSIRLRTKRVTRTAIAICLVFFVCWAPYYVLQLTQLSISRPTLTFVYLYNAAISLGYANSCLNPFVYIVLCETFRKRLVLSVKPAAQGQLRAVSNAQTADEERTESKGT

Work on `COc1cc(N2CCc3nc(-c4ccc(Cl)cc4)sc3C2=O)ccc1OCCN1CCCCC1` [Example 15, 2-(4-Chloro-phenyl)-5-[3-methoxy-4-(2-piperidin-1-yl-ethoxy)-phenyl]-6,7-dihydro-5H-thiazolo[5,4-c]pyridin-4-one] yielded a Ki (human MCHR1) of 19 nM.

For `COc1cc(-n2ccc3nc(-c4ccc(Cl)cc4)sc3c2=O)ccc1OCCN1CC(C)(C)OC(C)(C)C1` [Example 65, 2-(4-Chloro-phenyl)-5-{3-methoxy-4-[2-(2,2,6,6-tetramethyl-morpholin-4-yl)-ethoxy]-phenyl}-5H-thiazolo[5,4-c]pyridine-4-one Hydrochloride], the Ki (human MCHR1) was 35.8 nM.

In the case of `COc1cc(-n2ccc3nc(-c4ccc(Cl)cc4)sc3c2=O)ccc1CCCN1CCCC1.Cl` [Example 52, 2-(4-Chloro-phenyl)-5-[3-methoxy-4-(3-pyrrolidin-1-yl-propyl)-phenyl]-5H-thiazolo[5,4-c]pyridin-4-one hydrochloride], the “Body weight reduction @ 10 mg/Kg versus vehicle control. Data expressed in grams.” value [1] is reported as 9.6 grams.

`O=C1c2sc(-c3ccc(Cl)cc3)nc2CCN1c1ccc2c(c1)ncn2CCN1CCCC1` [Example 2, 2-(4-Chloro-phenyl)-5-[1-(2-pyrrolidin-1-yl-ethyl)-1H-benzoimidazol-5-yl]-6,7-dihydro-5H-thiazolo[5,4-c]pyridin-4-one] showed a Ki (human MCHR1) of 39.7 nM.

In the case of `Cl.Cn1cc(CCN2CCCC2)c2ccc(N3CCc4nc(-c5ccc(Cl)cc5)sc4C3=O)cc21` [Example 47, 2-(4-Chloro-phenyl)-5-[1-methyl-3-(2-pyrrolidin-1-yl-ethyl)-1H-indol-6-yl]-6,7-dihydro-5H-thiazolo[5,4-c]pyridin-4-one hydrochloride], the Ki (human MCHR1) is reported as 3.16 nM and the “Body weight reduction @ 10 mg/Kg versus vehicle control. Data expressed in grams.” value [1] is reported as 7.2 grams.

For `COc1cc(-n2ccc3nc(-c4ccc(Cl)cc4)sc3c2=O)ccc1OCc1cncn1C` [Example 42], the “Body weight reduction @ 10 mg/Kg versus vehicle control. Data expressed in grams.” value [1] was 1.7 grams.

For `Cc1cc2cc(N3CCc4nc(-c5ccc(Cl)cc5)sc4C3=O)ccc2n1CCN1CCCC1` [Example 5, 2-(4-Chloro-phenyl)-5-[2-methyl-1-(2-pyrrolidin-1-yl-ethyl)-1H-indol-5-yl]-6,7-dihydro-5H-thiazolo[5,4-c]pyridin-4-one], the Ki (human MCHR1) was 10.2 nM.

Work on `COc1cc(N2CCc3nc(-c4ccc(Cl)cc4)sc3C2=O)ccc1OCCN(C)C` [Example 33, 2-(4-Chloro-phenyl)-5-[4-(2-dimethylamino-ethoxy)-3-methoxy-phenyl]-6,7-dihydro-5H-thiazolo[5,4-c]pyridin-4-one] yielded a Ki (human MCHR1) of 5.13 nM.
